Changes are numbered by the printed parent chain. Structures can show the parent of a compound that is named as a salt.
Legend:
[1] = target: T1, MRGPRX2-WT (wild-type MRGPRX2 receptor) (Homo sapiens, UniProt Q96LB1); test: Primary HTS, Ca2+ mobilization (fluorescence ratio, B-score) in HEK293-Gα15 cells stably expressing wild-type MRGPRX2; type: cell-based; conditions: 10 μM compound
T1 construct: expressed in transfected cells
T1 sequence (Q96LB1 1-330): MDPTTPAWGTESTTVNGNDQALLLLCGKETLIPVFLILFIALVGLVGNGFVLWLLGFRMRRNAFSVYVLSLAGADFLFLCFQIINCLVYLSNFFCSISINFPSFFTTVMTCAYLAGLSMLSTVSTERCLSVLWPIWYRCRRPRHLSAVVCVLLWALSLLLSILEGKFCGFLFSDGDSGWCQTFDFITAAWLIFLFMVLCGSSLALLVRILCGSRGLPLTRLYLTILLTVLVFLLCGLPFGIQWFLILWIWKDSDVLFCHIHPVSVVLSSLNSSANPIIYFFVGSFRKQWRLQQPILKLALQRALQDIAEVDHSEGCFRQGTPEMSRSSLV
Description: (§1) We performed an experimental HTS on the Johns Hopkins Drug Library, which includes 1,811 (57%) FDA-approved drugs among 3,456 total compounds (28% of all known drugs worldwide) ([15]). We performed the HTS at the Johns Hopkins University ChemBioCORE Facility and employed HEK293-Gα15 cell lines that stably expressed MRGPRX2 protein.
(§2) We utilized 10 μM compounds (each compound was tested in triplicate) and calculated the compound effect using the signal-to-background fluorescence ratio (see Supplementary Methods).
(§3) In the HTS, we determined MRGPRX2 activation by a Ca^2+ mobilization assay that recorded a fluorescence change by utilizing a Functional Drug Screening System (FDSS 6000; Hamamatsu); we evaluated the compound effect using the calculated fluorescence ratio. We further applied the B-score normalization, which provided robust corrections for variation in fluorescence ratio ([22]).
(§4) We performed an experimental high-throughput screening (HTS) on the Johns Hopkins Drug Library (JHDL), which includes 1,811 (57%) FDA-approved drugs among 3,456 total compounds (28% of all known drugs worldwide). The remaining compounds in JHDL are catalogued in one or more of the resources below: British Approved Names (BAN); Dénominations Communes Françaises (DCF); International Nonproprietary Names (INN); Japanese Adopted Names (JAN); MI (Merck Index); National Formulary drug name (NF); and United States Accepted Names (USAN). The JHU drug library is stocked in 96 well plates at 10 mM in 100% DMSO and stored at -80 °C. We used a final concentration of 10 uM for each compound and DMSO concentration of 0.1% (tested in triplicate). […] We evaluated compound effect using the calculated fluorescence ratio. We further calculated B-scores, which are a relative potency score similar to Z scores in that they are the ratio of an adjusted raw value in the numerator to a measure of variability in the denominator.

[2] = target: T2, MRGPRX2-MUT (MRGPRX2 N62S mutation) (Homo sapiens, UniProt Q96LB1, N62S); test: Primary HTS, Ca2+ mobilization (fluorescence ratio, B-score) in HEK293-Gα15 cells stably expressing the MRGPRX2 N62S mutation; type: cell-based; conditions: for B-scores (MUT): 10 μM compound, MRGPRX2-MUT (N62S) cells; for Change of B-scores (%): 10 μM
T2 construct: expressed in transfected cells
T2 sequence (Q96LB1 1-330 N62S): T1 sequence (Q96LB1 1-330) with N62S
Description: as §1, §2, §3, §4

[3] = MRGPRX2-MUT in comparison to MRGPRX2-WT cells, Supplementary Table 1
[4] = MRGPRX2-MUT versus MRGPRX2-WT cells, Supplementary Table 2
[5] = MRGPRX2-MUT in comparison to MRGPRX2-WT cells, Table 1

B-scores (WT) ([1]; Supplementary Table 1)	B-scores (WT) ([1]; Supplementary Table 2)	B-scores (MUT) ([2]; Supplementary Table 1)	B-scores (MUT) ([2]; Supplementary Table 2)	Change of B-scores (%) [2, 3]	Change of B-scores (%) [2, 4]	B-scores (WT) ([1]; Table 1)	B-scores (MUT) ([2]; Table 1)	Change of B-scores (%) [2, 5]	SMILES
47.11	47.11	65.23	65.23	38.45%	38.45%				CC(=O)OCC[N+](C)(C)C [Acetylcholine Chloride]
23.36	23.36	80.61	80.61	245.01%	245.01%				CC(=O)OCC[N+](C)(C)C [Acetylcholine]
35.61		0.32		-99.09%					Nc1ncnc2c1ncn2[C@@H]1O[C@H](CO)[C@@H](O)[C@H]1O [Adenosine]
	12.09		2.96		-75.51%				CC(C)(C)NCC(O)c1ccc(O)c(CO)c1.CC(C)(C)NCC(O)c1ccc(O)c(CO)c1.O=S(=O)(O)O (stereo not drawn) [Albuterol sulfate]
30.77		1.68		-94.54%		30.77	1.68	-94.54%	CCCCC(CC)CNC(=N)NC(=N)NCCCCCCNC(=N)NC(=N)NCC(CC)CCCC (stereo not drawn) [Alexidine Hydrochloride]
18.49		2.98		-83.88%					CN(C)CCc1c[nH]c2ccc(CS(=O)(=O)N3CCCC3)cc12 [Almotriptan]
42.04		11.08		-73.65%					CCCCC[C@H](O)/C=C/[C@H]1[C@H](O)CC(=O)[C@@H]1CCCCCCC(=O)O [Alprostadil]
	16.31		1.83		-88.77%				CN(C)CCC=C1c2ccccc2CCc2ccccc21 [Amitriptyline hydrochloride]
31.57		3.87		-87.76%					CCOC(=O)C1=C(COCCN)NC(C)=C(C(=O)OC)C1c1ccccc1Cl (stereo not drawn) [Amlodipine Besylate]
36.21		3.47		-90.42%		36.21	3.47	-90.42%	CN1CCCC(n2nc(Cc3ccc(Cl)cc3)c3ccccc3c2=O)CC1 (stereo not drawn) [Azelastine Hydrochloride]
19.27		37.55		94.89%					CC(C[N+](C)(C)C)OC(N)=O (stereo not drawn) [Bethanechol Chloride]
	11.37		-0.05		-100.41%				CN(C)CCOC(c1ccccc1)c1ccc(Br)cc1.Cl (stereo not drawn) [Bromazine hydrochloride]
18.22	18.22	0.64	0.64	-96.48%	-96.48%	18.22	0.64	-96.48%	CN(C)CCC(c1ccc(Br)cc1)c1ccccn1 (stereo not drawn) [Brompheniramine]
42.55	42.55	63.57	63.57	49.41%	49.41%				C[N+](C)(C)CCOC(N)=O [Carbachol]
38.93		1.49	1.49	-96.18%	-94.84%	38.93	1.49	-96.18%	CN(C)CCOC(c1ccc(Cl)cc1)c1ccccn1 (stereo not drawn) [Carbinoxamine Maleate]
	11.13		0.12		-98.93%				CN(C)CCOC(c1ccc(Cl)cc1)c1ccccn1 (stereo not drawn) [Carbinoxamine]
29.98		16.90		-43.63%					CC(=O)O.CC(=O)O.CC[C@H](C)C[C@H](C)CCCCCCCCC(=O)N[C@H]1C[C@@H](O)[C@@H](NCCN)NC(=O)[C@@H]2[C@@H](O)CCN2C(=O)[C@H]([C@H](O)CCN)NC(=O)[C@H]([C@H](O)[C@@H](O)c2ccc(O)cc2)NC(=O)[C@@H]2C[C@@H](O)CN2C(=O)[C@H]([C@@H](C)O)NC1=O [Caspofungin acetate]
19.73		1.14		-94.20%		19.73	1.14	-94.20%	COc1ccc2cc1Oc1ccc(cc1)C[C@H]1c3c(cc4c(c3Oc3cc5c(cc3OC)CCN(C)[C@@H]5C2)OCO4)CCN1C [Cepharanthine]
	14.6		3.24		-77.83%				CN(C)CCN(Cc1ccc(Cl)cc1)c1ccccn1.Cl [Chloropyramine Hydrochloride]
	9.6		0.88		-90.88%				CN(C)CCC(c1ccc(Cl)cc1)c1ccccn1 (stereo not drawn) [Chlorpheniramine]
	7.97		2.69		-66.27%				CN(C)CCCN1c2ccccc2Sc2ccc(Cl)cc21 [Chlorpromazine Hydrochloride]
	10.2		-0.05		-100.54%				CN(C)CCCN1c2ccccc2Sc2ccc(Cl)cc21 [Chlorpromazine]

SMILES	B-scores (WT) ([1]; Supplementary Table 1)	B-scores (WT) ([1]; Supplementary Table 2)	B-scores (MUT) ([2]; Supplementary Table 1)	B-scores (MUT) ([2]; Supplementary Table 2)	Change of B-scores (%) [2, 3]	Change of B-scores (%) [2, 4]	B-scores (WT) ([1]; Table 1)	B-scores (MUT) ([2]; Table 1)	Change of B-scores (%) [2, 5]
CC(=O)c1ccc2c(c1)N(CCCN(C)C)c1ccccc1S2 [Acepromazine Maleate]	44.01	44.01	28.97	28.97	-34.19%	-34.19%			
CC(=O)c1ccc2c(c1)N(CCCN(C)C)c1ccccc1S2 [Acepromazine]		22.99		43.26		88.18%			
COC(=O)C1=CCCN(C)C1 [Arecoline Hydrobromide]	28.78		58.08		101.79%				
CN1[C@@H]2CC[C@H]1C[C@@H](OC(=O)C(CO)c1ccccc1)C2 (stereo partly drawn) [Atropine Sulfate Monohydrate]	24.16	24.16	0.90	0.9	-96.27%	-96.27%			
CN1[C@@H]2CC[C@H]1C[C@@H](OC(=O)C(CO)c1ccccc1)C2 (stereo partly drawn) [Atropine Sulfate]	41.43	41.43		-0.13	-100.31%	-100.31%			
CN1[C@@H]2CC[C@H]1C[C@@H](OC(=O)C(CO)c1ccccc1)C2 (stereo partly drawn) [Atropine]	18.59	18.59		-0.95	-105.08%	-105.08%			
CN1[C@@H]2CC[C@H]1C[C@@H](OC(c1ccccc1)c1ccccc1)C2 [Benztropine Methanesulfonate]	26.25		2.81		-89.29%				
CN1[C@@H]2CC[C@H]1C[C@@H](OC(c1ccccc1)c1ccccc1)C2 [Benztropine]	21.42		1.35		-93.68%				

— paper PMC9635925, “Biological screening of a unique drug library targeting MRGPRX2” (Frontiers in Immunology, 2022)
